The values that follow are results of earlier work, collected in patent publication US20200253945A1, “DELAYED RELEASE DEFERIPRONE TABLETS AND METHODS OF USING THE SAME” (Chiesi Farmaceutici S.p.A., priority 2017, published 2020).

For data set [1] the following is noted: in vivo.
The conditions of data set [2]: patients who begin therapy with deferiprone.

Regarding `Cc1c(O)c(=O)ccn1C` [deferiprone, Deferiprone], in data set [1], the elimination half-life entry is given as “about 2 hours”. Further, the “patients with gastric distress” value in data set [2] is on record as 15-30%.
